Results from ChEMBL document CHEMBL3832039, “DailyMed|setid=8e4382de-df78-4821-b11e-c423442a7ff8 | DIOVAN - valsartan tablet|PD-Rx Pharmaceuticals, Inc”.

Key:
Format in all cases: ADME, organism-based
[1] = Apparent clearance of Valsartan following oral administration of 40 to 160 mg Valsartan, twice a day, to heart failure patients.; conditions: human, in vivo, dose Range 40 to 160 mg, dosed compound id 15, dosed compound name VALSARTAN, regimen Every 12h, tissue Plasma, read-out: CL(app) (converted)
[2] = (§1) Pharmacokinetic parameters for Valsartan following oral or intravenous administration of Valsartan solution.; conditions: human, in vivo, dosed compound id 15, dosed compound name VALSARTAN, tissue Plasma
Homo sapiens = assay: as §1; conditions: in vivo, po, dosed compound id 15, dosed compound name VALSARTAN

In the case of CCCCC(=O)N(Cc1ccc(-c2ccccc2-c2nnn[nH]2)cc1)[C@H](C(=O)O)C(C)C [VALSARTAN], the CL/F [1] is reported as 75 mL/min, the Tmax ([2]; po) is reported as 2 to 4 h and the clearance ([2]; route iv) is reported as 33.3 mL/min. For the same molecule, the half-life ([2]; route iv) was 6 h, the CL renal ([2]; route iv, read-out: CL_renal (converted)) was 10.3 mL/min and the Vd ([2]; route iv, read-out: Vss) was 17 L. It also gave an Excretion (Homo sapiens; tissue Feces) of 83% and an Excretion (Homo sapiens; tissue Urine) of 13%.
